Patent publication US20080132505A1 (Glaxo Group Limited, priority 2004, published 2008)
Like-named read-outs stand apart in the source and are kept apart here.

Biological target: human cannabinoid CB2 receptor (Homo sapiens, UniProt P34972)
Experiment: Cannabinoid CB2 receptor agonist activity (yeast reporter assay, FDGlu fluorescence)
Type: cell-based
Conditions: for Emax: read-out: efficacy value (Emax relative to HU210) at the cloned human cannabinoid CB2 receptor
Procedure, shortened: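 Agonist-driven growth was read as fluorescein fluorescence (ex 485, em 535 nm) from FDGlu cleavage after 24 h at 30 °C, using yeast strain MMY23 carrying human CB2 and chimeric Gpa1/Gαi3. Medium had 10 mM 3-aminotriazole, pH 7.0; four-parameter fits gave EC50, with Emax and EMR versus HU210.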

[1] = EC50 value at the cloned human cannabinoid CB2 receptor

Chain of human cannabinoid CB2 receptor (P34972 whole entry): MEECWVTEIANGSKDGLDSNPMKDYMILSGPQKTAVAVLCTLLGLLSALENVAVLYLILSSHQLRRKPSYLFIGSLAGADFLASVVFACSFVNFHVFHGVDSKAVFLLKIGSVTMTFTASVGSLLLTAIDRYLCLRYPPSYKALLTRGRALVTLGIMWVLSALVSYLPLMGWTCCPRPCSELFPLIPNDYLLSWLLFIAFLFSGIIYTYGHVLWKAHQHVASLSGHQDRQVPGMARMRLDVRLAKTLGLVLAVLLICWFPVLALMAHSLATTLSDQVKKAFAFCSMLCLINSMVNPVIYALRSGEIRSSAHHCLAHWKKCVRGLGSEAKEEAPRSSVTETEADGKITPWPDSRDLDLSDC

| SMILES | EC50 [1] [nM] | Emax [%] | EC50 (read-out: EC50 value at the cloned human cannabinoid CB2 receptor) [nM] |
| --- | --- | --- | --- |
| O=C(NCC1CCC1)c1cnc(Nc2ccc(Br)cc2C(F)(F)F)nc1C(F)(F)F [Example 105, 2-(2-Trifluoromethyl-4-bromophenylamino)-4-trifluoromethyl-pyrimidine-5-carboxylic acid cyclobutylmethyl-amide] | 300 to 1000 | > 50 | – |
| O=C(NCC1CCCCC1)c1cnc(Nc2ccc(Br)cc2C(F)(F)F)nc1C(F)(F)F [Example 106, 2-(2-Trifluoromethyl-4-bromophenylamino)-4-trifluoromethyl-pyrimidine-5-carboxylic acid cyclohexylmethyl-amide] | 300 to 1000 | > 50 | – |
| O=C(NCC1CCOCC1)c1cnc(Nc2cccc(F)c2F)nc1C(F)(F)F [Example 107, 2-(2,3-Difluoro-phenylamino)-4-tri-fluoromethyl-pyrimidine-5-carboxylic acid (tetrahydropyran-4-ylmethyl)-amide] | 300 to 1000 | > 50 | – |
| Cc1ccc(Cl)cc1Nc1ncc(C(=O)NCC2CCOCC2)c(C(F)(F)F)n1 [Example 108, 2-(5-Chloro-2-methyl-phenylamino)-4-tri-fluoromethyl-pyrimidine-5-carboxylic acid (tetrahydropyran-4-ylmethyl)-amide] | 300 to 1000 | > 50 | – |
| N#Cc1c(Cl)cccc1Nc1ncc(C(=O)NCC2CCOCC2)c(C(F)(F)F)n1 [Example 109, 2-(3-Chloro-2-cyano-phenylamino)-4-tri-fluoromethyl-pyrimidine-5-carboxylic acid (tetrahydropyran-4-ylmethyl)-amide] | 300 to 1000 | > 50 | – |
| Cc1ccc(Nc2ncc(C(=O)NCC3CCOCC3)c(C(F)(F)F)n2)c(Cl)c1 [Example 110, 2-(2-Chloro-4-methyl-phenylamino)-4-tri-fluoromethyl-pyrimidine-5-carboxylic acid (tetrahydropyran-4-ylmethyl)-amide] | 300 to 1000 | > 50 | – |
| N#Cc1cc(Nc2ncc(C(=O)NCC3CCOCC3)c(C(F)(F)F)n2)ccc1Cl [Example 111, 2-(4-Chloro-3-cyano-phenylamino)-4-tri-fluoromethyl-pyrimidine-5-carboxylic acid (tetrahydropyran-4-ylmethyl)-amide] | 300 to 1000 | > 50 | – |
| Cc1cc(Cl)ccc1Nc1ncc(C(=O)NCC2CCOCC2)c(C(F)(F)F)n1 [Example 112, 2-(4-Chloro-2-methyl-phenylamino)-4-tri-fluoromethyl-pyrimidine-5-carboxylic acid (tetrahydropyran-4-ylmethyl)-amide] | 300 to 1000 | > 50 | – |
| Cc1ccc(Cl)c(Nc2ncc(C(=O)NCC3CCOCC3)c(C(F)(F)F)n2)c1 [Example 113, 2-(2-Chloro-5-methyl-phenylamino)-4-tri-fluoromethyl-pyrimidine-5-carboxylic acid (tetrahydropyran-4-ylmethyl)-amide] | 300 to 1000 | > 50 | – |
| COc1cccc(Nc2ncc(C(=O)NCC3CCCCC3)c(C(F)(F)F)n2)c1 [Example 163, 2-(3-Methoxyphenylamino)-4-trifluoromethyl-pyrimidine-5-carboxylic acid cyclohexylmethyl-amide] | – | – | 20 to 300 |
| O=C(NCC1(O)CCCCC1)c1cnc(Nc2cccc(Cl)c2)nc1C(F)(F)F [Example 164, 2-(3-Chlorophenylamino)-4-trifluoromethyl-pyrimidine-5-carboxylic acid (1-hydroxycyclohexylmethyl)-amide] | 20 to 300 | > 50 | – |
| O=C(NCC1(O)CCCCC1)c1cnc(Nc2cccc(Br)c2)nc1C(F)(F)F [Example 165, 2-(3-Bromophenylamino)-4-trifluoromethyl-pyrimidine-5-carboxylic acid (1-hydroxycyclohexylmethyl)-amide] | 20 to 300 | > 50 | – |
| O=C(NCC1CCCCC1)c1cnc(Nc2ccc(F)c(Cl)c2)nc1C(F)(F)F [Example 166, 2-(3-Chloro-4-fluorophenylamino)-4-trifluoromethyl-pyrimidine-5-carboxylic acid cyclohexylmethyl-amide] | 20 to 300 | > 50 | – |
